In brackets after ≈: the same amount, converted by molar mass. Several values for one entry are separate records, joined by “and”; a condition that tells them apart may be missing. Equal values may be shown once.
How the values were obtained:
[1] = Rat lung tissue concentration after 14 days of inhaled dosing; type: in vivo, rats (Han Wistar); conditions: for Lung concentration: lungs ~22 hours after final dose (Day 15)
Procedure: Portions of rat lung tissue were homogenized in methanol:water (50:50; 15 mL for 1 g tissue). PC945 concentrations in tissue homogenates were analyzed using LC‐MS/MS. A control rat lung sample (B&K Universal Ltd, Hull, UK) was used as standards and quality control.

[2] = tested on: CYP1A2, 2B6, 2C8, 2C9, 2C19, 2D6; assay: CYP inhibition in pooled human liver microsomes, other isoforms; type: in vitro ADME
Procedure: PC945 and posaconazole (Sigma‐Aldrich, UK) were added to the pooled human liver microsomal samples (Pharmaron Rushden, UK) at concentrations of 0, 0.03, 0.1, 0.3, 1, 3, and 5 μmol/L. The mixtures were preincubated at 37°C for 0 or 30 minutes before the addition of selective CYP substrates. Microsomal reactions were terminated by adding 100 μL of cold (4°C) methanol containing appropriate internal standard. Aliquots (150 μL) of each sample were centrifuged and the supernatant was used for substrate analysis by ultra‐performance liquid chromatography with tandem mass spectrometry (UPLC‐MS/MS) on the day of incubations.
Change in substrate concentration was measured to determine the extent of CYP‐isoform inhibition. The 30‐minute preincubations were performed to determine whether there was time‐dependent inhibition of any CYP isoform (CYP1A2, 2B6, 2C8, 2C9, 2C19, 2D6, and 3A4/5). Untreated control contained only solvent, dimethyl sulfoxide (≤0.5% [v/v]). Positive control contained a chemical inhibitor selective for each CYP enzyme in the […].

[3] = In vitro plasma protein binding; type: in vitro ADME; conditions: 0.1‐50 µmol/L
Procedure: Plasma protein binding of PC945 was determined by […] in pooled plasma samples from human, dog, rat, and mouse. PC945 was tested at 0.1, 1, 5, 25, and 50 µmol/L in plasma for each species. PC945‐containing plasma samples were centrifuged at 238 859 g for 20 hours at 37°C. Supernatant was removed and diluted. The concentration of unbound PC945 was determined using LC‐MS/MS, from which the extent of protein binding was calculated.

[4] = Clinical pharmacokinetics, repeat inhaled dose in healthy subjects (Cohort 2); type: in vivo, human
Description: (§1) Part one consisted of a single dose escalation study (Cohort 1) and a repeat dose study (Cohort 2) of inhaled PC945 in healthy subjects. Part two comprised a single dose study of inhaled PC945 in subjects with mild asthma (Cohort 3). The doses selected were predicted to achieve target lung concentrations above the IC90/MIC90 for A. fumigatus (based on data from a range of in vitro and in vivo systems) throughout a 24‐hour period and with a suitable safety margin based on animal toxicology data.
Nine healthy subjects (four males and five females; mean age: 33.2 years, mean weight: 66.5 kg, mean BMI: 23.53 kg/m^2) whose forced expiratory volume over 1 second (FEV1) and forced vital capacity (FVC) were ≥80% of predicted values with an FEV1/FVC ratio >0.7, received once daily doses of PC945 5 mg or placebo for 7 days (Cohort 2, PC945:placebo = 2:1).
(§2) Serial blood samples were collected to determine plasma PC945 concentrations. For the single dose study in healthy subjects and in subjects with mild asthma, blood samples were collected predose and at 0.25, 0.5, 1, 2, 4, 6, 8, 24, 30, and 48 hours postend of inhalation and at the follow‐up visit. For the repeat dose study, blood samples were collected (a) predose and at 0.25, 0.5, 1, 2, 4, 6, 8, 10, 12, and 24 hours postend of inhalation on Days 1 and 7, and 30 and 48 hours on Day 7; (b) predose on Days 5 and 6; (c) at the follow‐up visit.
Attainment of steady state was assessed by visual inspection of the predose plots during the 7‐day treatment period in human subjects.

[5] = Clinical pharmacokinetics, single inhaled dose in subjects with mild asthma (Cohort 3); type: in vivo, human; conditions: single inhaled 5 mg
Description: as §1
In Cohort 3, nine subjects with mild asthma (six males and three females; mean age: 37.7 years, mean weight: 82.70 kg, mean BMI: 26.48 kg/m^2) received a single dose of PC945 5 mg or placebo (PC945:placebo = 2:1).
as §2

[6] = tested on: A. fumigatus strains; design: method as in PMID 28223388; conditions: EUCAST method, 96 clinically isolated A. fumigatus strains; cited from earlier work
[7] = Toxicokinetics/toxicity in dogs, daily 2-hour inhalation for 14 days (plasma); conditions: for Ro (accumulation ratio): AUC0‐24h (Day14)/AUC0‐24h (Day 1)
Description: Each dose was inhaled over a 2‐hour period once daily for 14 days.
Lower limit of quantification of the assay was 10 pg/mL for clinical samples and 100 pg/mL for rat and dog plasma samples.

[8] = healthy subjects, 5 mg once daily, Day 1, geometric mean (CV%)
[9] = healthy subjects, 5 mg once daily, Day 7, geometric mean (CV%)
[10] = female dogs, Day 14 of inhaled 1.7 mg/kg/day, mean
[11] = female dogs, Day 14 of inhaled 5.3 mg/kg/day, mean
[12] = female dogs, Day 14 of inhaled 18.1 mg/kg/day, mean
[13] = female dogs, single inhaled dose 1.7 mg/kg, mean ± SD
[14] = female dogs, single inhaled dose 5.3 mg/kg, mean ± SD
[15] = female dogs, single inhaled dose 18.1 mg/kg, mean ± SD
[16] = male dogs, Day 14 of inhaled 1.7 mg/kg/day, mean
[17] = male dogs, Day 14 of inhaled 5.3 mg/kg/day, mean
[18] = male dogs, Day 14 of inhaled 18.1 mg/kg/day, mean
[19] = male dogs, single inhaled dose 1.7 mg/kg, mean ± SD
[20] = male dogs, single inhaled dose 5.3 mg/kg, mean ± SD
[21] = male dogs, single inhaled dose 18.1 mg/kg, mean ± SD

Cc1cc(N2CCN(c3ccc(C(=O)Nc4ccc(F)cc4)cc3)CC2)ccc1OC[C@@H]1CO[C@@](Cn2cncn2)(c2ccc(F)cc2F)C1 [PC945]
Ratio lung tissue concentration (Day 15)/plasma C max (Day 14) ([1]; female rats, 2.0 mg/kg/day): 2610
Lung concentration ([1]; female rats, 2.0 mg/kg/day for 14 days): 50 100 ng/mL
Ratio lung tissue concentration (Day 15)/plasma C max (Day 14) ([1]; female rats, 7.1 mg/kg/day): 2740
Lung concentration ([1]; female rats, 7.1 mg/kg/day for 14 days): 138 000 ng/mL
Ratio lung tissue concentration (Day 15)/plasma C max (Day 14) ([1]; female rats, 16.6 mg/kg/day): 2340
Lung concentration ([1]; female rats, 16.6 mg/kg/day for 14 days): 216 000 ng/mL
Mean lung:plasma ratio ([1]; male rats): ~ 4300 fold
Ratio lung tissue concentration (Day 15)/plasma C max (Day 14) ([1]; male rats, 2.0 mg/kg/day): 3450
Lung concentration ([1]; male rats, 2.0 mg/kg/day for 14 days): 42 400 ng/mL
Ratio lung tissue concentration (Day 15)/plasma C max (Day 14) ([1]; male rats, 7.1 mg/kg/day): 5020
Lung concentration ([1]; male rats, 7.1 mg/kg/day for 14 days): 119 000 ng/mL
Ratio lung tissue concentration (Day 15)/plasma C max (Day 14) ([1]; male rats, 16.6 mg/kg/day): 4280
Lung concentration ([1]; male rats, 16.6 mg/kg/day for 14 days): 329 000 ng/mL
Lung concentration relative to plasma ([1]; rats, all dose levels, after 14‐day inhaled dosing): > 2000 fold
Time‐dependent effect on other CYP isoforms ([2]; 30‐minute preincubation): no time‐dependent effect
Cytochrome P450 inhibitory interaction, isoforms other than CYP3A4/5 ([2]; up to 5 μmol/L): only cytochrome P450 inhibitory interaction observed for PC945 was that on CYP3A4/5 substrates
Mean percentage protein bound ([3]; dog plasma): 91% and 91.1%
Mean percentage protein bound ([3]; human plasma): 96.6%
Mean percentage protein bound ([3]; mouse plasma): 96.2%
Mean percentage protein bound ([3]; rat plasma): 97.8%
AUC0–24h [4, 8]: 6510 (60.0) pg*h/mL
C max [4, 8]: 462 (68.0) pg/mL
t max ([4]; healthy subjects, 5 mg once daily, Day 1, median (range)): 2 h and 2.10 (2.08‐4.08) h
time of C max postend of inhalation ([4]; healthy subjects, 5 mg once daily, Day 7): 45 min
C max [4, 9]: 951 (58.7) pg/mL
t ½ [4, 9]: 132 (22.7) h
t max ([4]; healthy subjects, 5 mg once daily, Day 7, median (range)): 0.745 (0.240‐10.1) h
Cmax ([4]; human, inhaled doses, read-out: C max values obtained with inhaled doses): < 2 nM
Predicted time to steady state ([4]; once daily dosing, human): approximately 5 weeks
AUC0–24h [5]: 4.95 ng·h/mL
median t max [5]: 4 h
C max ([5]; geometric mean): 0.335 ng/mL
Geometric mean minimum inhibitory concentration (MIC) [6]: 0.17 µg/mL
MIC50 [6]: 0.125 µg/mL (≈ 0.183 µM)
MIC90 [6]: 1.0 µg/mL and 1 µg/mL
Margin over the clinical AUC following a 5 mg dose ([7]; dog, highest dose tested): threefold
Time of C max after a single dose ([7]; dogs, after the 2‐hour dosing period): immediately
Systemic toxicity ([7]; dogs, highest dose tested): No systemic toxicity
Ro (accumulation ratio) ([7]; female dogs, 1.7 mg/kg/day): 2.27
Ro (accumulation ratio) ([7]; female dogs, 5.3 mg/kg/day): 1.88
Ro (accumulation ratio) ([7]; female dogs, 18.1 mg/kg/day): 1.26
AUC0‐24h [7, 10]: 27.7 ng·h/mL
C max [7, 10]: 2.3 ng/mL
AUC0‐24h [7, 11]: 73.3 ng·h/mL
C max [7, 11]: 5.5 ng/mL
AUC0‐24h [7, 12]: 114 ng·h/mL
C max [7, 12]: 7.8 ng/mL
AUC0‐24h [7, 13]: 12.2 ± 2.9 ng·h/mL
C max [7, 13]: 1.5 ± 0.5 ng/mL
AUC0‐24h [7, 14]: 39.0 ± 2.7 ng·h/mL
C max [7, 14]: 4.3 ± 0.7 ng/mL
AUC0‐24h [7, 15]: 90.6 ± 6.7 ng·h/mL
C max [7, 15]: 10.2 ± 1.3 ng/mL
Ro (accumulation ratio) ([7]; male dogs, 1.7 mg/kg/day): 2.06
Ro (accumulation ratio) ([7]; male dogs, 5.3 mg/kg/day): 1.84
Ro (accumulation ratio) ([7]; male dogs, 18.1 mg/kg/day): 2.29
AUC0‐24h [7, 16]: 35.5 ng·h/mL
C max [7, 16]: 2.8 ng/mL
AUC0‐24h [7, 17]: 70.9 ng·h/mL
C max [7, 17]: 5.6 ng/mL
AUC0‐24h [7, 18]: 203 ng·h/mL
C max [7, 18]: 13.5 ng/mL
AUC0‐24h [7, 19]: 17.2 ± 3.5 ng·h/mL
C max [7, 19]: 2.2 ± 0.3 ng/mL
AUC0‐24h [7, 20]: 38.5 ± 1.8 ng·h/mL
C max [7, 20]: 4.6 ± 0.4 ng/mL
AUC0‐24h [7, 21]: 88.5 ± 25.8 ng·h/mL
C max [7, 21]: 9.7 ± 2.4 ng/mL
